Laboratory results reported in US12415770B2, “Modulators of liver receptor homologue 1 (LRH-1) and uses” (Emory University, priority 2017, dated 2025).
Entries after “also recorded” stand apart in the source; their conditions may differ. Where two headings read alike, the source gives them in different places.

What was measured:
LRH-1 LBD = molecular target: T1, LRH-1 LBD (Homo sapiens, UniProt O00482); experiment: Thermofluor (DSF) assay, purified LRH-1 LBD-His protein; format: binding; conditions: for stabilization of LRH-1-ligand complex / Tm shift: WT LRH-1; for ΔTm at 50 µM: read-out: ΔTm (mean +/− SEM) (° C.)
T1 construct: LRH-1 LBD (residues 299-541) in the pMSC7 vector was expressed in BL21 (DE3) pLysS E. coli; made in house; host or cells: E. coli BL21 (DE3) pLysS
T1 sequence (O00482 299-541): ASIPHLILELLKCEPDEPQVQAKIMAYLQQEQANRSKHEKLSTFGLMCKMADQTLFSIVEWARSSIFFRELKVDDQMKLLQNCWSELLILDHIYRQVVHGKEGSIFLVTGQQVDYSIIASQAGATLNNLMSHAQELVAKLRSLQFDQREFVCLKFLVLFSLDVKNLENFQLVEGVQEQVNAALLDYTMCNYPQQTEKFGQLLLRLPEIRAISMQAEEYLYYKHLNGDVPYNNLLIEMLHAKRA
Description: Thermofluor assays—Purified LRH-1 LBD-His protein (0.2 mg/ml) was incubated overnight with 50 μM of each compound at 4° C. The final DMSO concentration in the reactions was 1%. SYPRO orange dye (Invitrogen) was then added at a 1:1000 dilution. Reactions were heated at a rate of 0.5° C. per minute, using a StepOne Plus Real Time PCR System (ThermoFisher). […] Data were analyzed by first subtracting baseline fluorescence (ligands+SYPRO with no protein) and then fitting the curves using the Bolzman equation (GraphPad Prism, v6) to determine the Tm. […]

H390A-LRH-1 = H390A-LRH-1 (Homo sapiens, UniProt O00482, H390A); experiment: Luciferase reporter assay (SHP-luc), H390A mutant LRH-1; conditions: His-390 mutated to alanine
Sequence of H390A-LRH-1 (O00482 whole entry H390A): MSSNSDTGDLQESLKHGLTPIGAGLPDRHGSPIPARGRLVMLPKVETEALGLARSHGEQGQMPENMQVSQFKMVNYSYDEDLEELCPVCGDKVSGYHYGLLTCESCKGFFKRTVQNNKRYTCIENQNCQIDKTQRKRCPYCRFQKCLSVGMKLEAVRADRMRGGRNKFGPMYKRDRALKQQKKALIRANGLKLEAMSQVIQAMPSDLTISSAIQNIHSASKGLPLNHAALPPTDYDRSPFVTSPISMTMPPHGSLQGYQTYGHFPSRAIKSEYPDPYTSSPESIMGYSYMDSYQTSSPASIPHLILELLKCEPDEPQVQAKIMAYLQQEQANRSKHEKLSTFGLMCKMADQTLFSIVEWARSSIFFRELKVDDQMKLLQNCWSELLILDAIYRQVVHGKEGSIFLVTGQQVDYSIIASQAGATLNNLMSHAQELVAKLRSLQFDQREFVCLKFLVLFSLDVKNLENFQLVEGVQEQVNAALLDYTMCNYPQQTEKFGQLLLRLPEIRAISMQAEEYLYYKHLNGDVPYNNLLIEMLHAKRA

LRH-1 = molecular target: T2, LRH-1 (Homo sapiens, UniProt O00482); experiment: Luciferase reporter assay (SHP-luc) in HeLa cells transfected with full-length LRH-1; format: cell-based; conditions: for Relative Efficacy: fold increase over baseline (DMSO-treated cells) relative to the fold increase induced by RJW100
T2 construct: The transfected plasmids included full-length LRH-1 in a pCI vector; expressed in transfected cells; host or cells: HeLa
T2 sequence (O00482 whole entry): as the sequence (O00482 whole entry H390A) above, with A390H counted along it
Description: EC50 and Relative Activity values were calculated from luciferase reporter assays.

[1] = cited from earlier work
[2] = diabetic mice fed DLPC, mouse models of insulin resistance
[3] = 50 μM compound, relative to DLPC-bound LRH-1
[4] = HeLa cells, SHP-luc reporter, 24 hours, 0.03-30 μM

| Relative Efficacy (LRH-1) | ΔTm at 50 µM (LRH-1 LBD; [3]) [°C] | EC50 (LRH-1; [4]) [µM] | Molecule | further results |
| --- | --- | --- | --- | --- |
| – | – | – | CCC/C=C(\CCC)C1=C(c2ccccc2)[C@]2(Nc3ccccc3)CCC[C@@H]2C1 [GSK8470, reference compound] | stabilization of LRH-1-ligand complex / Tm shift (LRH-1 LBD): did not affect the melting profile; activation of H390A-LRH-1 (H390A-LRH-1): completely unable to activate; increase of LRH-1 activity compared with DMSO (LRH-1; WT LRH-1, highest dose): ~2.5 fold; EC50 (LRH-1; WT LRH-1, text): ~4 µM |
| – | – | – | CCCCCCCCCCCC(=O)OC[C@H](COP(=O)([O-])OCC[N+](C)(C)C)OC(=O)CCCCCCCCCCC [DLPC, dilauroyl-phosphatidylcholine] | bile acid levels ([1]; DLPC treatment, mouse): increases bile acid levels; hepatic triglycerides and serum glucose ([1]; DLPC treatment, mouse): lowers hepatic triglycerides and serum glucose; circulating insulin, triglycerides, and free fatty acids ([1]; diabetic mice fed DLPC): reduced quantities; glucose tolerance / glucose homeostasis [1, 2]: improves glucose homeostasis; also recorded: improved glucose tolerance; hepatic fat accumulation / hepatic steatosis [1, 2]: decreases hepatic steatosis; also recorded: reduced hepatic fat accumulation |
| 0.72 | 3 | 0.5 | C=C(c1ccccc1)[C@@]12CC[C@H](OS(C)(=O)=O)C1CC(CCCCCC)=C2c1ccccc1 (stereo partly drawn) [Compound 30-endo, (Endo or Exo) 5-hexyl-4-phenyl-3a-(1-phenylvinyl)-1,2,3,3a,6,6a-hexahydropentalen-1-yl methanesulfonate] | – |
| 0.93 | -1.7 | 5.1 | C=C(c1ccccc1)C12CCC(O)C1CC(CCCCCCCCCCCOP(=O)([O-])OCC[N+](C)(C)C)=C2c1ccccc1 (stereo not drawn) [Compound 12g, 11-(6-exo-hydroxy-3-phenyl-3a-(1-phenylvinyl)-1,3a,4,5,6,6a-hexahydropentalen-2-yl)undecyl (2-(trimethylammonio)ethyl) phosphate] | – |
| 0.06 | 0.1 | – | CCCCCCC1=C(c2ccccc2)[C@]2(C(C)c3ccccc3)CC[C@@H](O)C2C1 (stereo partly drawn) [Compound 39-exo, (Endo or Exo)-5-hexyl-4-phenyl-3a-(1-phenylethyl)-1,2,3,3a,6,6a-hexahydropentalen-1-ol] | – |
| 3.39 | 3 | 1.8 | C=C(c1ccccc1)[C@@]12CC[C@@H](O)[C@@H]1CC(CCCCCCCCC(=O)O)=C2c1ccccc1 (relative stereo) [Compound 10f, 9-(6-exo-hydroxy-3-phenyl-3a-(1-phenylvinyl)-1,3a,4,5,6,6a-hexahydropentalen-2-yl)nonanoic acid] | – |
| 0.85 | 1.4 | – | C=C(c1ccccc1)C12CC[C@@H](O)C1CC(CCCCCC)=C2c1cccc(O)c1 (mixture of isomers) [Compound 15f, (Exo)-5-hexyl-4-(3-hydroxyphenyl)-3a-(1-phenylvinyl)-1,2,3,3a,6,6a-hexahydropentalen-1-ol] | EC50 (μM) (LRH-1; [4]): cnc |
| 2.22 | 5.5 | 9 | C=C(c1ccccc1)[C@@]12CC[C@@H](O)[C@@H]1CC(CCCCCC(=O)O)=C2c1ccccc1 (relative stereo) [Compound 7f, 6-(6-exo-hydroxy-3-phenyl-3a-(1-phenylvinyl)-1,3a,4,5,6,6a-hexahydropentalen-2-yl)hexanoic acid] | – |
| 1.12 | 5.6 | > 30 | C=C(c1ccccc1)C12CCC(O)C1CC(CCCCCCCCOP(=O)([O-])OCC[N+](C)(C)C)=C2c1ccccc1 (stereo not drawn) [Compound 9g, 8-(6-exo-hydroxy-3-phenyl-3a-(1-phenylvinyl)-1,3a,4,5,6,6a-hexahydropentalen-2-yl)octyl (2-(trimethylammonio)ethyl) phosphate] | – |
| −0.2 | – | > 30 | ((((endo or exo)-5-hexyl-4-phenyl-3a-(1-phenylvinyl)-1, 2, 3, 3a, 6,6a-hexahydropentalen-1-yl)oxy)carbonyl)sulfamic acid [Compound 40-endo] | ΔTm (mean +/− SEM) (° C.) (LRH-1 LBD; [3]): 1.95 +/− 0.15 °C; stabilization of LRH-1-ligand complex / Tm shift (LRH-1 LBD): greatly stabilized the protein-ligand complex; LRH-1 activation (LRH-1; WT LRH-1): increased activation of LRH-1 compared to RJW100 |
| 0.33 | < 1 | – | C=C(c1ccccc1)C12CCC(O)C1CC(CCCCOP(=O)([O-])OCC[N+](C)(C)C)=C2c1ccccc1 (stereo not drawn) [Compound 5g, 4-(6-exo-hydroxy-3-phenyl-3a-(1-phenylvinyl)-1,3a,4,5,6,6a-hexahydropentalen-2-yl)butyl (2-(trimethylammonio)ethyl) phosphate] | EC50 (μM) (LRH-1; [4]): cnc |
| 0.14 | 1.1 | 1 | C=C(c1ccccc1)[C@@]12CC[C@@H](OS(C)(=O)=O)C1CC(CCCCCC)=C2c1ccccc1 (stereo partly drawn) [Compound 30-exo, (Endo or Exo) 5-hexyl-4-phenyl-3a-(1-phenylvinyl)-1,2,3,3a,6,6a-hexahydropentalen-1-yl methanesulfonate] | – |
| 2.48 | 4.4 | 4 | C=C(c1ccccc1)[C@@]12CC[C@@H](O)[C@@H]1CC(CCCCCCCC(=O)O)=C2c1ccccc1 (relative stereo) [Compound 9f, 8-(6-exo-hydroxy-3-phenyl-3a-(1-phenylvinyl)-1,3a,4,5,6,6a-hexahydropentalen-2-yl)octanoic acid] | – |
| 2.7 | < 1 | > 30 | C=C(c1ccccc1)[C@@]12CC[C@@H](O)C1CC(CCCCCC)=C2c1cc(N)ccc1C (mixture of isomers) [Compound 17g, (Exo)-4-(5-amino-2-methylphenyl)-5-hexyl-3a-(1-phenylvinyl)-1,2,3,3a,6,6a-hexahydropentalen-1-ol] | – |
| −0.42 | < 1 | – | C=C(c1ccccc1)[C@@]12CCC(=O)C1CC(CCCCCC)=C2c1ccccc1 (stereo in doubt) [Compound 27, 5-hexyl-4-phenyl-3a-(1-phenylvinyl)-3,3a,6,6a-tetrahydropentalen-1 (2H)-one] | – |

| Molecule | Relative Efficacy (LRH-1) | ΔTm at 50 µM (LRH-1 LBD; [3]) [°C] | EC50 (LRH-1; [4]) [µM] | further results |
| --- | --- | --- | --- | --- |
| C=C(c1ccccc1)[C@@]12CCC(O)C1CC(CCCCCCCCOP(=O)(OCC)OCC)=C2c1ccccc1 (stereo partly drawn) [Compound 53-endo, (Endo or Exo) diethyl (8-(6-hydroxy-3-phenyl-3a-(1-phenylvinyl)-1,3a,4,5,6,6a-hexahydropentalen-2-yl)octyl)phosphate] | 1.04 | – | – | ΔTm at 50 µM (LRH-1 LBD): < 1 °C |
